Consider 21 molecules from patent publication USRE37781E1, “Substituted cyclic carbonyls and derivatives thereof useful as retroviral protease inhibitors” (DuPont Pharmaceuticals Company, priority 1991, dated 2002).

The subject of one test is HIV-1 (RF) in MT-2 cells. The test can be described thus: microbe, parasite or virus in culture. Format: cell-based. In short, it runs like this:
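HIV-1 laboratory strains (RF, MN, IIIB) grown in H9 cells in RPMI 1640 with 5% FCS; infections in MT-2 cells. Viral RNA quantified by hybridization with biotinylated gag/pol capture probes on streptavidin plates and alkaline phosphatase-conjugated reporter probes; BH10 gag-pol in vitro transcripts serve as RNA standards.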

The target of test [1] is single-chain tethered dimer of HIV protease (Human immunodeficiency virus 1, UniProt P04585). Description: biochemical. Format: biochemical. Also noted: fused on or other part: A second copy of the same protease unit is joined to the first by a short peptide tether, giving one polypeptide.
Setting [2] is: Table 2u (second printing), HPLC method, read-out: K1 (HPLC).
Where [3] appears, read: Table 2u, HPLC method, read-out: K1 (HPLC).
Where [4] appears, read: Human immunodeficiency virus 1, MT2, 48 h, Table 2d, class symbols, read-out: IC90.
The mark [5] stands for this setting: read-out: HPLC K1, Table 2d, class symbols.
The mark [6] stands for this setting: Table 2d, class symbols, read-out: HPLC K1.

Values after ≈ are worked out from the molar mass of the structure shown. Like-named read-outs stand apart in the source and are kept apart here. A value given as a limit tells only on which side of the number the result lay.

For orientation: IC90 means the point of the concentration-response curve where the effect stands at 90%. As for `CCCCN1C(=O)N(CCCC)C(Cc2ccccc2[N+](=O)[O-])C(O)C(O)C1Cc1ccc([N+](=O)[O-])cc1` (stereo not shown) [20C], the 90% effect concentration (IC90) result in the test on HIV-1 (RF) in MT-2 cells (Table 2i) is “+++ (+++=<10 μg/mL)”. Besides, the Ki in test [1] (Table 2i, read-out: HPLC Ki) was less than 10 nM.

In the case of `COC(=O)c1ccc(CN2C(Cc3ccc(F)cc3)C(O)C(O)C(Cc3ccc(F)cc3)N(Cc3ccc(C(=O)OC)cc3)S2(=O)=O)cc1` (stereo not shown) [31B], the IC90 entry with HIV-1 (RF) in MT-2 cells (Table 2u) and in the test with HIV-1 (RF) in MT-2 cells (Table 2u (second printing)) was “+++ (+++=<10 μg/mL)” throughout. In addition, the Ki in test [1] (setting [2]) and in test [1] (setting [3]) was 10 to 1000 nM each time.

Take `CCCNC(=NO)c1cccc(CN2C(=O)N(Cc3cccc(C(=NO)NCCC)c3)C(Cc3ccccc3)C(O)C(O)C2Cc2ccccc2)c1` (stereo not shown) [15BA]: the IC90 entry in the test on HIV-1 (RF) in MT-2 cells (Table 2d, HIV RNA assay) is “+++ (+++=<10 μg/mL)”. The Ki in test [1] (Table 2d, HIV protease inhibition, HPLC method, read-out: HPLC K1) is less than 10 nM.

Consider `O=C1N(CCCCCCO)C(Cc2ccccc2)C(O)C(O)C(Cc2ccccc2)N1CCCCCCCl` (stereo not shown) [Example 15VE], for which, in the test on HIV-1 (RF) in MT-2 cells (setting [4]), the IC90 was less than 10 µg/mL. Also, in test [1] (setting [5]), the Ki lay within 10 to 1000 nM.

Regarding `CNc1cccc(CN2[C@H](Cc3ccccc3)[C@H](O)[C@@H](O)[C@@H](Cc3ccccc3)N(Cc3cccc(NC)c3)P2(=O)Oc2ccccc2)c1` (stereo partly shown) [28L], the IC90 result in the test with HIV-1 (RF) in MT-2 cells (Table 2r) is “++ (++=10 to 100 μg/mL)”. Besides, the Ki in test [1] (Table 2r, read-out: Ki HPLC) fell in the range of 10 to 1000 nM.

Regarding `O=C1N(Cc2cccc(CNOCc3ccccc3)c2)C(Cc2ccccc2)C(O)C(O)C(Cc2ccccc2)N1Cc1cccc(CNOCc2ccccc2)c1` (stereo not shown) [Example 9F], the concentration for an effect of 90% (IC90) entry in the test on HIV-1 (RF) in MT-2 cells (Table 2d, class symbols) is “+ (+=>100 μg/mL)”. The Ki in test [1] (setting [6]) fell in the range of 10 to 1000 nM.

Consider `CC(C)(C)OC(=O)c1ccc(CN2C(=O)N(Cc3ccc(C(=O)OC(C)(C)C)o3)C(Cc3ccccc3)C(O)C(O)C2Cc2ccccc2)o1` (stereo not shown) [Example 13W], for which the IC90 entry in the test with HIV-1 (RF) in MT-2 cells (Table 2d, class symbols) was “+++ (+++=<10 μg/mL)”. In addition, the Ki in test [1] (setting [6]) was greater than 1000 nM.

Take `COc1cccc(CC2NC(=O)NC(Cc3cccc(OC)c3)C(O)C2O)c1` (stereo not shown) [20AO]: in the test on HIV-1 (RF) in MT-2 cells (Table 2i), the IC90 entry is reported as “++ (++=10 to 100 μg/mL)”. In test [1] (Table 2i, read-out: HPLC Ki), the Ki was in the range of 10 to 1000 nM.

On to `O=C1N(Cc2cccc(O)c2)C(Cc2ccccc2)C(O)C(O)C(Cc2ccccc2)N1Cc1ccccn1` (stereo not shown) [10Q], for which, in the test on HIV-1 (RF) in MT-2 cells (setting [4]), the IC90 is less than 10 µg/mL. Also, in test [1] (setting [5]), the Ki was 10 to 1000 nM.

Turning to `O=C1N(Cc2ccoc2)C(Cc2ccccc2)C(O)C(O)C(Cc2ccccc2)N1Cc1coc(CO)c1` (stereo not shown) [Example 15FR], in the test on HIV-1 (RF) in MT-2 cells (HIV RNA assay, HIV-1 infected MT-2 cells, Table 2d), the IC90 result is “+++ (+++=<10 μg/mL)”. Moreover, the Ki in test [1] (HIV protease inhibition, HPLC method, Table 2d, read-out: HPLC K1) was less than 10 nM.

Take `CC(=O)Oc1ccc(CN2C(=O)N(Cc3ccc(OC(C)=O)cc3)C(Cc3ccccc3)C(O)C(O)C2Cc2ccccc2)cc1` (stereo not shown) [10L]: in the test on HIV-1 (RF) in MT-2 cells (setting [4]), the IC90 was less than 10 µg/mL. Besides, in test [1] (setting [5]), the Ki fell in the range of 10 to 1000 nM.

For the molecule `NCCCCCCN1C(=O)N(CCCCCCN)C(Cc2ccccc2)C(O)C(O)C1Cc1ccccc1` (stereo not shown) [Example 12A], in the test on HIV-1 (RF) in MT-2 cells (setting [4]), the IC90 was greater than 100 µg/mL. The Ki in test [1] (setting [5]) was greater than 1000 nM.

With `O=P1(Oc2ccccc2)N[C@H](Cc2ccccc2)[C@H](O)[C@@H](O)[C@@H](Cc2ccccc2)N1` (stereo partly shown) [28A], the IC90 result in the test with HIV-1 (RF) in MT-2 cells (Table 2r) is recorded as “++ (++=10 to 100 μg/mL)”. In addition, the Ki in test [1] (Table 2r, read-out: Ki HPLC) is greater than 1000 nM.

For the molecule `O=P1(Oc2ccccc2)N(CC2CC2)[C@H](Cc2ccccc2)[C@H](O)[C@@H](O)[C@@H](Cc2ccccc2)N1CC1CC1` (stereo partly shown) [28C], the concentration for an effect of 90% (IC90) entry in the test with HIV-1 (RF) in MT-2 cells (Table 2r) is on record as “+++ (+++=<10 μg/mL)”. The Ki in test [1] (Table 2r, read-out: Ki HPLC) was 10 to 1000 nM.

Take `NC(=NO)c1cccc(CN2C(=S)N(Cc3cccc(C(N)=NO)c3)[C@H](Cc3ccccc3)[C@H](O)[C@@H](O)[C@H]2Cc2ccccc2)c1` [Example 27L]: the 90% effect concentration (IC90) result in the test on HIV-1 (RF) in MT-2 cells (Table 2q) was “+++ (+++=<10 μg/mL)”. The Ki in test [1] (Table 2q, read-out: HPLC Ki) is less than 10 nM.

Consider `C=CCCCCN1C(=O)N(CCCCC=C)C(Cc2ccccc2)C(O)C(O)C1Cc1ccccc1` (stereo not shown) [Example 13D], for which, in the test on HIV-1 (RF) in MT-2 cells (setting [4]), the concentration for an effect of 90% (IC90) is less than 10 µg/mL. For the same molecule, the Ki in test [1] (setting [5]) is less than 10 nM.

Take `O=C1N(Cc2ccccc2)C(Cc2ccccc2)C(O)C(O)C(Cc2ccccc2)N1Cc1ccccc1` (stereo not shown) [Example 13L]: in the test on HIV-1 (RF) in MT-2 cells (setting [4]), the IC90 is less than 10 µg/mL. Besides, in test [1] (setting [5]), the Ki was less than 10 nM.

Turning to `O=C1N(CCCCO)C(Cc2ccccc2)C(O)C(O)C(Cc2ccccc2)N1CCCCO` (stereo not shown) [Example 12F], in the test with HIV-1 (RF) in MT-2 cells (setting [4]), the IC90 is 10 to 100 µg/mL (≈ 21.2 to 212 µM). Also, the Ki in test [1] (setting [5]) was 10 to 1000 nM.

As to `CN(C)CCNC(=O)c1cccc(CN2C(Cc3ccccc3)C(O)C(O)C(Cc3ccccc3)N(Cc3cccc(C(=O)NCCN(C)C)c3)S2(=O)=O)c1` (stereo not shown) [23AA], in the test with HIV-1 (RF) in MT-2 cells (Table 2m), the concentration for an effect of 90% (IC90) result is recorded as “++ (++=10 to 100 μg/mL)”. Besides, the Ki in test [1] (Table 2m, read-out: HPLC Ki) lay in the range of 10 to 1000 nM.

Turning to `O=C1N(Cc2ccc(C(O)CO)cc2)C(Cc2ccccc2)C(O)C(O)C(Cc2ccccc2)N1Cc1ccc(C(O)CO)cc1` (stereo not shown) [11L], in the test with HIV-1 (RF) in MT-2 cells (setting [4]), the IC90 is less than 10 µg/mL. Besides, the Ki in test [1] (setting [5]) was less than 10 nM.

As for `O=S1(=O)N(Cc2cccc(CO)c2)C(Cc2ccc(F)cc2)C(O)C(O)C(Cc2ccc(F)cc2)N1Cc1cccc(CO)c1` (stereo not shown) [31C], the 90% effect concentration (IC90) result in the test with HIV-1 (RF) in MT-2 cells (Table 2u) and in the test with HIV-1 (RF) in MT-2 cells (Table 2u (second printing)) was “+++ (+++=<10 μg/mL)” each time. For the same molecule, the Ki in test [1] (setting [2]) and in test [1] (setting [3]) was less than 10 nM throughout.
